Experimental data from PMC7545187, “Endocrine disruption of vitamin D activity by perfluoro-octanoic acid (PFOA)” (Scientific Reports, 2020).

Molecular target: T1, Vitamin D receptor (VDR) (Homo sapiens, UniProt P11473)
T1 sequence (P11473 1-427): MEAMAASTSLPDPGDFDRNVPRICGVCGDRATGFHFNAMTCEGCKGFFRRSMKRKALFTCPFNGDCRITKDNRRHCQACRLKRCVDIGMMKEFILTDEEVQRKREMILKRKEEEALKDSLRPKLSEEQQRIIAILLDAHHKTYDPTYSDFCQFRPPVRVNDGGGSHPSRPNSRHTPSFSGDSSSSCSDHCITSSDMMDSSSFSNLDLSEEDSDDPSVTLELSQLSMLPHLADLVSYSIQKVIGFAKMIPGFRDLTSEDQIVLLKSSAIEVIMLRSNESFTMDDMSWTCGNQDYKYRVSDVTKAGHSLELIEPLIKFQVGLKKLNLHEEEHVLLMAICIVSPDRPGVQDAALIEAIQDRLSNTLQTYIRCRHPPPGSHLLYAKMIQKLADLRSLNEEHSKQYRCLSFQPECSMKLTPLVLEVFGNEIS
Test: SPR competition: PFOA ([…]) with […](OH)D over immobilized VDR; […] decrease, no Kd for PFOA
Type: binding

Structure (SMILES): O=C(O)C(F)(F)C(F)(F)C(F)(F)C(F)(F)C(F)(F)C(F)(F)C(F)(F)F [PFOA, perfluorooctanoic acid]
- % decrease: 10 % decrease
